Measurements reported in patent US9687551B2, “Compositions comprising lecithin oils and NSAIDs for protecting the gastrointestinal tract and providing enhanced therapeutic activity” (The Board of Regents of the University of Texas System, priority 2000, dated 2017).

Assays:
[1] = tested on: rabbit carotid artery thrombus; test: In vivo model of arterial thrombogenesis (carotid artery, anodal current)
Method: The anti-thrombotic effect of aspirin with or without PC was then evaluated in an in vivo model of arterial thrombogenesis. According to the protocol (B24), the left carotid artery of an anesthetized rabbit was subjected to anodal current to the point where mean carotid blood flow velocity was […] control values, which corresponds to 50% occlusion of the vessel by the formed thrombus. At this point the current was discontinued and the test drugs intravenously administered as blood flow was monitored over the next 2-3 hours. It can be appreciated from FIG. 14A that carotid artery blood flow velocity dropped to zero (indicative of complete thrombus occlusion of the vessel) in <60 min in control rabbits treated with either saline or phospholipid alone (mean time until closing=40±17).

[2] = tested on: PGI2 to TXA2 ratio of carotid artery; test: PGI2 to TXA2 ratio in affected carotid arteries; format: in vivo, rabbit; conditions: 2.5 mg/kg aspirin; FIG. 14C
Method: 6-keto PGF1α (a metabolite of PGI2) and TXA2 concentrations was also measured in the affected carotid arteries.

[3] = tested on: vascular (endothelial) PGI2, abdominal aorta; test: Ex vivo 6-keto PGF1α production by abdominal aorta; format: in vivo, rat; conditions: 20 mg/kg ASA intragastric, 1 hr, incubated with AA; vs control; FIG. 13B
Method: FIG. 13B graphically depicts the effect of intragastric administration to rats of 20 mg/kg ASA alone or complexed with DPPC on 6KPGF1a production by abdominal aorta. After 1 hr the aorta was removed and each aorta ring was incubated at […] for 10 min in Tris-HCl buffer containing 25 mM AA. 6KPGF1a was measured by RIA. *=p<0.050 vs ASA; **=p<0.001 vs saline; n=4;
This ex vivo approach was then used to measure vascular (endothelial) PGI2. Abdominal aorta excised one hour after drug administration was evaluated for its ability to produce 6-keto PGF1α (a stable metabolite of PGI2) by incubating it with arachidonic acid (AA, 25 mM). […] It is, therefore, possible to achieve selective inhibition of platelet cyclooxygenase and preserve vascular prostacyclin biosynthesis by the administration of PC-aspirin.

[4] = tested on: fasted Sprague Dawley rats; test: Acetaminophen liver injury, plasma AST; format: in vivo, rat; conditions: acetaminophen 800 mg/kg oral, 24 hrs, P35 SB 1:2 wt ratio, vs saline; FIG. 15
Method: FIG. 15 graphically depicts data relating to liver injury in rats, as indicated by elevations in the plasma levels of the enzyme aspartate transaminase (AST), 24 hours after fasted rats are orally administrated acetaminophen (800 mg/kg) alone or in combination with P35SB at wt. ratios of 1:1 and 1:2.

[5] = tested on: rats' inflamed paw; test: Pain threshold of CFA-inflamed hindpaw (Randall-Sellito technique); format: in vivo, rat; conditions: 2 h; for pain pressure threshold of inflamed paw (analgesic activity): lecithin oil 1:1
Method: A previously described method was then used to evaluate the anti-inflammatory/analgesic activity of the NSAID-lecithin formulations (in comparison to the NSAIDs alone). This was accomplished be injecting 0.1 ml of Complete Freund's Adjuvant (CFA) into the left hindpaw of rats to induce an acute inflammatory response. […] The results are depicted in FIGS. 4-6.

[6] = tested on: TXB2 production in rat platelets; test: Ex vivo TXB2 production in platelets after intragastric dosing; conditions: 20 mg/kg intragastric, 30 min, aggregation induced by arachidonic acid; FIG. 13A
Method: FIGS. 13A&B graphically depicts Concentration of TXB2 in rat platelets, 30 min after oral administration of saline, DPPC, ASA (20 mg/kg), or ASA complexed with DPPC. PRP was prepared and aggregation induced by AA (2 mM). TXB2 was measured by RIA. The results expressed as mean±SEM; n=3. *=p<0.050 vs ASA—Abbreviations: DPPC=dipalmitoylphosphatidylcholine; AA=arachidonic acid; pRP=platelet rich plasma; TXB=thromboxane;
Ex vivo animal studies of the effects of phospholipid-aspirin complex (containing equimolar concentration of the two agents) on the ability to produce TXA2 and PGI2 in platelets and vascular tissue respectively were invesitaged. Rats were intragastrically administered either unmodified or DPPC-associated aspirin (20 mg/kg dose), and after 30 minutes, blood was drawn, platelet-rich plasma was prepared, and aggregation was induced by arachidonic acid.

[7] = tested on: mucosal COX activity; conditions: aspirin subcutaneously or intragastrically; cited from earlier work
[8] = tested on: fasted rats; test: Gastric lesions after intragastric aspirin followed by HCl challenge; format: in vivo, rat; conditions: aspirin 18 mg/kg, 0.6 N HCl 45 min later, ASA:lecithin oil 1:0.5, 1:1, 1:2, FIG. 1
Method: One preferred embodiment of this formulation is a lecithin oil based PC-NSAID composition, which has been tested for GI toxicity. The three formulations that were tested include lecithin oils combined with aspirin, indomethacin and ibuprofen. In this study, aspirin was combined with Phosal® 35 SB, a lecithin oil, marketed by Phospholipid GmbH (Cologne, Germany), that is constituted of soy lecithin-derived components in sunflower oil. More particularly, Phosal® 35 SB lecithin oil contains about 33-40 wt. % phosphatidylcholine (PC, not including lyso-phosphatidylcholine), about 26-31 wt. % triglycerides, about 8-13 wt. % free fatty acids, and about 5-9 wt. % glycolipids. The aspirin/lecithin oil (Phosal® 35 SB) composition was intragastrically administered to fasted rats at an aspirin dose of 18 mg/kg, where the NSAID:lecithin oil weight ratio was systematically varied from 1:0.5, to 1:1, to 1:2. In addition, other groups of rats received an equivalent dose of aspirin in the absence of the lecithin oil, or an equivalent volume of saline. Forty five minutes later all animals were intragastrically challenged with 1 ml of 0.6 N HCl, and 15 min later, the animals were euthanized and their stomachs opened and the gastric lesions scored by an established method.^50-52

[9] = tested on: Tg2576 mouse; conditions: cited from earlier work
[10] = tested on: fasted rats; test: GI bleeding (hemoglobin in GI effusate) in rats sensitised with L-NAME; format: in vivo, rat; conditions: intragastric, NSAID:lecithin 1:1, L-NAME
Method: Control rats received an equivalent volume of saline. To make the rats more sensitive to the GI damaging effects of the NSAID all rats also were injected with the nitric oxide (NO) synthase inhibitor, L-NAME (20 mg/kg), three times over the 18-20 hr study period, after which the animals were euthanized and the distal 20 cm of the GI tract was flushed with 2 ml of saline, and the effusate collected for hemoglobin analysis—as an index of GI bleeding.

[11] = tested on: SCI rats; conditions: 25 mg NSAID/kg twice a day
From the text: In FIG. 7A, the data was plotted directly as recorded (without normalization), while in FIG. 7B, the data values for each animal are compared to its own baseline preoperative values.
Please note that in this case, a lower number is indicative of analgesic, whereas with the Randall Sellito test higher pain pressure threshold values are indicative of analgesia.

Q: With `CCCCCCCCCCCCCCCC(=O)OC[C@H](COP(=O)([O-])OCC[N+](C)(C)C)OC(=O)CCCCCCCCCCCCCCC` [DPPC, dipalmitoylphosphatidylcholine] as the compound, how does the “time until blood flow velocity dropped to zero (complete occlusion)” value ([1]; control rabbits treated with saline or phospholipid alone, FIG. 14A) read?
A: < 60 min

Q: And the “mean time until closing” value ([1]; control rabbits, saline or phospholipid alone (pooled), in min)?
A: 40±17

Q: What about the “PGI2 to TXA2 ratio in affected carotid arteries” value [2] of the same compound?
A: improved slightly

Q: What about the “6-keto PGF1α production by abdominal aorta” value [3] of the same compound?
A: no effect

Q: With `CC(=O)Nc1ccc(O)cc1` [Tylenol, acetaminophen] as the compound, how does the “plasma aspartate transaminase (AST), liver injury” value [4] read?
A: significantly elevated

Q: Which “time to vessel occlusion by thrombus” value ([1]; 2.5 mg/kg aspirin i.v., FIG. 14A) does the source give for `CC(=O)Oc1ccccc1C(=O)O` [aspirin] here?
A: ≤ 61 ± 15 min

Q: And the vessel occlusion ([1]; aspirin 5-20 mg/kg i.v., 2-3 hr experiment (data not shown))?
A: no vessel occlusion

Q: What about the “PGI2 to TXA2 ratio in affected carotid arteries” value [2] of the same compound?
A: improved slightly

Q: And the “pain threshold of affected paw (analgesic activity)” value ([5]; aspirin 10 mg/kg intragastric, all weight ratios tested, FIG. 4)?
A: modest ability to increase the pain threshold

Q: And the “6-keto PGF1α production by abdominal aorta” value [3]?
A: significantly inhibited

Q: What about the “TXB2 production in platelets” value [6] of the same compound?
A: reduction in TXB2

Q: And the “inhibition of mucosal COX activity” value [7]?
A: > 90%

Q: And the gastric lesions [8]?
A: high number of gastric lesions

Q: For `CC(C)Cc1ccc(C(C)C(=O)O)cc1` (centres unmarked) [ibuprofen], which “amyloid-plaques, dystrophic neurites and activated microglia” value [9] is on record?
A: reduce numbers of amyloid-plaques, dystrophic neurites and activated microglia

Q: And the “pain pressure threshold of inflamed paw (analgesic activity)” value ([5]; ibuprofen 25 mg/kg intragastric, FIG. 5)?
A: modest though non-significant, ability to increase the pain pressure threshold

Q: What about the GI bleeding ([10]; ibuprofen 100 mg/kg, FIG. 3) of the same compound?
A: modest increase in GI bleeding

Q: And the body weight gain ([11]; 6 week period, FIG. 9)?
A: do not gain weight

Q: What about the “pain pressure threshold (hyperalgesia), Randall Sellito” value ([11]; 6 weeks after SCI, FIGS. 7A, 7B) of the same compound?
A: hyperalgesia due to SCI was not seen

Q: Which “pain pressure threshold of inflamed paw (analgesic activity)” value ([5]; indomethacin 4 mg/kg intragastric, FIG. 6) does the source give for `COc1ccc2c(c1)c(CC(=O)O)c(C)n2C(=O)c1ccc(Cl)cc1` [indomethacin] here?
A: modest though non-significant, ability to increase the pain pressure threshold

Q: And the GI bleeding ([10]; indomethacin 10 mg/kg, FIG. 2)?
A: severe increase in GI bleeding
